In ChEMBL document CHEMBL4000244, “Probing A-form DNA: A fluorescent aminosugar probe and dual recognition by anthraquinone-neomycin conjugates” (Bioorg Med Chem, 2017):

Columns and labels:
[1] = Binding affinity to 5'-CGCGCGCG-3' DNA hairpin assessed as change in fluorescence intensity at 1 uM after 45 mins by fluorescence quenching analysis relative to control
[2] = Binding affinity to 5'-GCCGCCGG-3' DNA hairpin assessed as change in fluorescence intensity at 1 uM after 45 mins by fluorescence quenching analysis relative to control
[3] = Binding affinity to 5'-CCGCCGCC-3' DNA hairpin assessed as change in fluorescence intensity at 1 uM after 45 mins by fluorescence quenching analysis relative to control
[4] = Binding affinity to 5'-CCCCCGCG-3' DNA hairpin assessed as change in fluorescence intensity at 1 uM after 45 mins by fluorescence quenching analysis relative to control
[5] = Binding affinity to 5'-GGGCCCGG-3' DNA hairpin assessed as change in fluorescence intensity at 1 uM after 45 mins by fluorescence quenching analysis relative to control
[6] = Binding affinity to 5'-GGGCCGGC-3' DNA hairpin assessed as change in fluorescence intensity at 1 uM after 45 mins by fluorescence quenching analysis relative to control
[7] = Binding affinity to 5'-CGGCCGGG-3' DNA hairpin assessed as change in fluorescence intensity at 1 uM after 45 mins by fluorescence quenching analysis relative to control
[8] = Binding affinity to 5'-CCGGGGCG-3' DNA hairpin assessed as change in fluorescence intensity at 1 uM after 45 mins by fluorescence quenching analysis relative to control
[9] = Binding affinity to 5'-CGGGCGGC-3' DNA hairpin assessed as change in fluorescence intensity at 1 uM after 45 mins by fluorescence quenching analysis relative to control
[10] = Binding affinity to 5'-CGCCCCCG-3' DNA hairpin assessed as change in fluorescence intensity at 1 uM after 45 mins by fluorescence quenching analysis relative to control
[11] = Binding affinity to 5'-CCCGCCGG-3' DNA hairpin assessed as change in fluorescence intensity at 1 uM after 45 mins by fluorescence quenching analysis relative to control
[12] = Binding affinity to 5'-GCGGCCCG-3' DNA hairpin assessed as change in fluorescence intensity at 1 uM after 45 mins by fluorescence quenching analysis relative to control
[13] = Binding affinity to 5'-CGCGGCGG-3' DNA hairpin assessed as change in fluorescence intensity at 1 uM after 45 mins by fluorescence quenching analysis relative to control
[14] = Binding affinity to 5'-GGGGGCCC-3' DNA hairpin assessed as change in fluorescence intensity at 1 uM after 45 mins by fluorescence quenching analysis relative to control
[15] = Binding affinity to 5'-CCCGCGGG-3' DNA hairpin assessed as change in fluorescence intensity at 1 uM after 45 mins by fluorescence quenching analysis relative to control
[16] = Binding affinity to 5'-GCCCGGGG-3' DNA hairpin assessed as change in fluorescence intensity at 1 uM after 45 mins by fluorescence quenching analysis relative to control
[17] = Binding affinity to 5'-CGGGGCGC-3' DNA hairpin assessed as change in fluorescence intensity at 1 uM after 45 mins by fluorescence quenching analysis relative to control
[18] = Binding affinity to 5'-CCGCGGCC-3' DNA hairpin assessed as change in fluorescence intensity at 1 uM after 45 mins by fluorescence quenching analysis relative to control
[19] = Binding affinity to 5'-GCGGCCCC-3' DNA hairpin assessed as change in fluorescence intensity at 1 uM after 45 mins by fluorescence quenching analysis relative to control
[20] = Binding affinity to 5'-GCCGCCCC-3' DNA hairpin assessed as change in fluorescence intensity at 1 uM after 45 mins by fluorescence quenching analysis relative to control
[21] = Binding affinity to 5'-GGGGGGCG-3' DNA hairpin assessed as change in fluorescence intensity at 1 uM after 45 mins by fluorescence quenching analysis relative to control
[22] = Binding affinity to 5'-GGGCGGGG-3' DNA hairpin assessed as change in fluorescence intensity at 1 uM after 45 mins by fluorescence quenching analysis relative to control
[23] = Binding affinity to 5'-GGGGGGCC-3' DNA hairpin assessed as change in fluorescence intensity at 1 uM after 45 mins by fluorescence quenching analysis relative to control
[24] = Binding affinity to 5'-GGCGCGCC-3' DNA hairpin assessed as change in fluorescence intensity at 1 uM after 45 mins by fluorescence quenching analysis relative to control
[25] = Binding affinity to 5'-CCCGGCCC-3' DNA hairpin assessed as change in fluorescence intensity at 1 uM after 45 mins by fluorescence quenching analysis relative to control
[26] = Binding affinity to 5'-CGCGGCCC-3' DNA hairpin assessed as change in fluorescence intensity at 1 uM after 45 mins by fluorescence quenching analysis relative to control
[27] = Binding affinity to 5'-CGCCGCGG-3' DNA hairpin assessed as change in fluorescence intensity at 1 uM after 45 mins by fluorescence quenching analysis relative to control
[28] = Binding affinity to 5'-CGGGCCGG-3' DNA hairpin assessed as change in fluorescence intensity at 1 uM after 45 mins by fluorescence quenching analysis relative to control
[29] = Binding affinity to 5'-GGGCCCCG-3' DNA hairpin assessed as change in fluorescence intensity at 1 uM after 45 mins by fluorescence quenching analysis relative to control
[30] = Binding affinity to 5'-GCCGCGGG-3' DNA hairpin assessed as change in fluorescence intensity at 1 uM after 45 mins by fluorescence quenching analysis relative to control
[31] = Binding affinity to 5'-CCCCCGGG-3' DNA hairpin assessed as change in fluorescence intensity at 1 uM after 45 mins by fluorescence quenching analysis relative to control
[32] = Binding affinity to 5'-GCCGGGGC-3' DNA hairpin assessed as change in fluorescence intensity at 1 uM after 45 mins by fluorescence quenching analysis relative to control
[33] = Binding affinity to 5'-GGGGGCGG-3' DNA hairpin assessed as change in fluorescence intensity at 1 uM after 45 mins by fluorescence quenching analysis relative to control
[34] = Binding affinity to 5'-GGGCCGCC-3' DNA hairpin assessed as change in fluorescence intensity at 1 uM after 45 mins by fluorescence quenching analysis relative to control
[35] = Binding affinity to 5'-GCCCCGGG-3' DNA hairpin assessed as change in fluorescence intensity at 1 uM after 45 mins by fluorescence quenching analysis relative to control
[36] = Binding affinity to 5'-CCCGGGGG-3' DNA hairpin assessed as change in fluorescence intensity at 1 uM after 45 mins by fluorescence quenching analysis relative to control

For NCC1O[C@H](O[C@H]2[C@@H](O)[C@H](O[C@@H]3[C@@H](O)[C@H](N)C[C@H](N)[C@H]3O[C@H]3O[C@H](CN)[C@@H](O)[C@H](O)[C@H]3N)O[C@@H]2CSCCNC(=O)CCSCC(=O)Nc2ccc(-c3c4ccc(=O)cc-4oc4cc(O)ccc34)c(C(=O)O)c2)[C@H](N)[C@@H](O)[C@@H]1O (stereo partly specified), the Activity [1] was 43.6%, the Activity [2] was 54.5% and the Activity [3] was 52.2%. For the same compound, the Activity [4] was 35.4%, the Activity [5] was 25.4% and the Activity [6] was 44.4%. For the same compound, the Activity [7] was 41.4%, the Activity [8] was 37.5% and the Activity [9] was 45.1%. For the same compound, the Activity [10] was 31.8%, the Activity [11] was 50.9% and the Activity [12] was 52.5%. It also gave an Activity [13] of 52%, an Activity [14] of 34.4% and an Activity [15] of 40.3%. The Activity [16] was 38.8%, the Activity [17] was 49% and the Activity [18] was 50.6%. For the same compound, the Activity [19] was 37.2%, the Activity [20] was 48.5% and the Activity [21] was 46.3%. The Activity [22] was 45.3%, the Activity [23] was 32.2% and the Activity [24] was 49%. The Activity [25] was 40.8%, the Activity [26] was 44.6% and the Activity [27] was 49.8%. It also gave an Activity [28] of 48.2%, an Activity [29] of 18.1% and an Activity [30] of 52.7%. For the same compound, the Activity [31] was 35.1%, the Activity [32] was 43.2% and the Activity [33] was 38.3%. For the same compound, the Activity [34] was 40%, the Activity [35] was 28.8% and the Activity [36] was 38.7%.
